PubChem BioAssay (NCI)
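Grown in 96-well plates, cells were treated for 48 hours with each compound at five concentrations. Insufficient inhibition: endpoint recorded as highest concentration tested. The concentration for 50% growth inhibition is given as GI50. TGI denotes the concentration required for complete inhibition of growth.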

Key:
Test in all cases: DTP human tumour cell line panel, 48 h
[1] = test system: HOP-62 NSCLC
[2] = test system: MDA-MB-468 breast
[3] = test system: HCT-116 colon
[4] = test system: LOX IMVI melanoma
[5] = test system: CAKI-1 renal
[6] = test system: MCF7 breast
[7] = test system: SK-MEL-2 melanoma
[8] = test system: K-562 leukemia
[9] = test system: NCI-H23 lung
[10] = test system: OVCAR-3 ovarian
[11] = test system: DU-145 prostate
[12] = test system: UACC-257 melanoma
[13] = test system: OVCAR-4 ovarian
[14] = test system: IGROV1 ovarian
[15] = test system: MOLT-4 leukemia
[16] = test system: BT-549 breast
[17] = test system: KM12 colon
[18] = test system: NCI-H226 lung
[19] = test system: SF-295 CNS
[20] = test system: MDA-MB-231 breast
[21] = test system: SK-MEL-5 melanoma
[22] = test system: SR leukemia
[23] = test system: SK-OV-3 ovarian
[24] = test system: T-47D breast
[25] = test system: OVCAR-5 ovarian
[26] = test system: HCT-15 colon
[27] = test system: COLO 205 colon
[28] = test system: M14 melanoma
[29] = test system: A549 NSCLC
[30] = test system: NCI-H522 lung
[31] = test system: PC-3 prostate
[32] = test system: EKVX NSCLC
[33] = test system: HCC-2998 colon
[34] = test system: RXF 393 renal
[35] = test system: SNB-75 CNS
[36] = test system: A498 renal
[37] = test system: SNB-19 CNS
[38] = test system: SF-539 CNS
[39] = test system: SW-620 colon
[40] = test system: HOP-92 NSCLC
[41] = test system: UACC-62 melanoma
[42] = test system: RPMI-8226 leukemia
[43] = test system: HT29 colon
[44] = test system: ACHN renal
[45] = test system: SK-MEL-28 melanoma
[46] = test system: HS 578T breast
[47] = test system: U251 CNS
[48] = test system: HL-60(TB) leukemia
[49] = test system: CCRF-CEM leukemia
[50] = test system: TK-10 renal
[51] = test system: MALME-3M melanoma
[52] = test system: NCI/ADR-RES ovarian
[53] = test system: SF-268 CNS
[54] = test system: NCI-H460 lung

SMILES: CC(=O)NCC1=C(C)C=C2C(=O)[C@](C)(O)C3(CC3)C(C)=C21
- GI50 [1]: 0.0246 µM
- TGI [1]: 0.0761 µM
- GI50 [2]: < 0.0136 µM
- TGI [2]: 0.0303 µM
- GI50 [3]: 0.0509 µM
- GI50 [4]: 0.136 µM
- TGI [4]: 0.354 µM
- GI50 [5]: 0.0404 µM
- TGI [5]: 0.791 µM
- GI50 [6]: 0.214 µM
- TGI [6]: > 20.6 µM
- GI50 [7]: 0.179 µM
- TGI [7]: 0.346 µM
- GI50 [8]: 15 µM
- TGI [8]: > 100 µM
- GI50 [9]: 0.0159 µM
- TGI [9]: 0.0372 µM
- GI50 [10]: 0.0397 µM
- TGI [10]: 0.472 µM
- GI50 [11]: 0.0275 µM
- TGI [11]: 0.233 µM
- GI50 [12]: 0.0934 µM
- TGI [12]: 0.29 µM
- GI50 [13]: 0.071 µM
- TGI [13]: 0.322 µM
- GI50 [14]: 0.028 µM
- TGI [14]: 0.0804 µM
- GI50 [15]: 8.44 µM
- TGI [15]: > 100 µM
- GI50 [16]: 0.0277 µM
- TGI [16]: 0.0991 µM
- GI50 [17]: 0.257 µM
- TGI [17]: 5.85 µM
- GI50 [18]: 0.143 µM
- TGI [18]: 0.615 µM
- GI50 [19]: 0.0262 µM
- TGI [19]: 0.122 µM
- GI50 [20]: 0.067 µM
- TGI [20]: 0.306 µM
- GI50 [21]: 0.0704 µM
- TGI [21]: 0.216 µM
- GI50 [22]: 5.7 µM
- TGI [22]: > 100 µM
- GI50 [23]: 0.0301 µM
- TGI [23]: 0.0993 µM
- GI50 [24]: 0.0438 µM
- TGI [24]: 0.84 µM
- GI50 [25]: 0.0342 µM
- TGI [25]: 0.24 µM
- GI50 [26]: 0.044 µM
- TGI [26]: 0.325 µM
- GI50 [27]: 0.039 µM
- TGI [27]: 0.162 µM
- GI50 [28]: 0.0712 µM
- TGI [28]: 0.22 µM
- GI50 [29]: 0.0312 µM
- TGI [29]: 0.33 µM
- GI50 [30]: 0.254 µM
- TGI [30]: 0.997 µM
- GI50 [31]: 0.068 µM
- TGI [31]: 0.898 µM
- GI50 [32]: 0.116 µM
- TGI [32]: 0.356 µM
- GI50 [33]: 0.0287 µM
- TGI [33]: 0.103 µM
- GI50 [34]: 0.0164 µM
- TGI [34]: 0.0328 µM
- GI50 [35]: 0.0197 µM
- TGI [35]: 0.0735 µM
- GI50 [36]: 0.0257 µM
- TGI [36]: 0.0655 µM
- GI50 [37]: 0.163 µM
- TGI [37]: 0.751 µM
- GI50 [38]: 0.0225 µM
- TGI [38]: 0.0565 µM
- GI50 [39]: 13.4 µM
- TGI [39]: 38.7 µM
- GI50 [40]: 0.0261 µM
- TGI [40]: 0.0702 µM
- GI50 [41]: 0.132 µM
- TGI [41]: 0.278 µM
- GI50 [42]: 22.9 µM
- TGI [42]: > 83.5 µM
- GI50 [43]: 0.0356 µM
- GI50 [44]: 0.0228 µM
- TGI [44]: 0.0578 µM
- GI50 [45]: 0.125 µM
- TGI [45]: 0.293 µM
- GI50 [46]: 0.204 µM
- TGI [46]: 0.678 µM
- GI50 [47]: 0.051 µM
- GI50 [48]: 0.0279 µM
- TGI [48]: 0.876 µM
- GI50 [49]: 13.5 µM
- TGI [49]: > 84.9 µM
- GI50 [50]: 0.0364 µM
- GI50 [51]: 0.0602 µM
- TGI [51]: 0.181 µM
- GI50 [52]: 0.0648 µM
- TGI [52]: 0.323 µM
- GI50 [53]: 0.0332 µM
- TGI [53]: 0.577 µM
- GI50 [54]: 0.0225 µM
- TGI [54]: 0.132 µM
